According to PubChem BioAssay (NCI):
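Cells were grown in 96-well plates and exposed to each compound for 48 hours at five concentrations; endpoints were interpolated linearly between bracketing concentrations, or set to the highest concentration if not reached. GI50 marks 50% less growth. TGI: concentration producing complete growth inhibition.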

Key:
Test in all cases: NCI anticancer screen, dose series, 48 h
[1] = test system: 786-0 renal
[2] = test system: A498 renal
[3] = test system: A549 NSCLC
[4] = test system: ACHN renal
[5] = test system: BT-549 breast
[6] = test system: CAKI-1 renal
[7] = test system: CCRF-CEM leukemia
[8] = test system: COLO 205 colon
[9] = test system: DU-145 prostate
[10] = test system: EKVX NSCLC
[11] = test system: HCC-2998 colon
[12] = test system: HCT-116 colon
[13] = test system: HCT-15 colon
[14] = test system: HL-60(TB) leukemia
[15] = test system: HOP-62 NSCLC
[16] = test system: HS 578T breast
[17] = test system: HT29 colon
[18] = test system: IGROV1 ovarian
[19] = test system: K-562 leukemia
[20] = test system: KM12 colon
[21] = test system: LOX IMVI melanoma
[22] = test system: M14 melanoma
[23] = test system: MCF7 breast
[24] = test system: MDA-MB-231 breast
[25] = test system: MDA-MB-435
[26] = test system: MOLT-4 leukemia
[27] = test system: NCI-H226 lung
[28] = test system: NCI-H23 lung
[29] = test system: NCI-H460 lung
[30] = test system: NCI-H522 lung
[31] = test system: NCI/ADR-RES ovarian
[32] = test system: OVCAR-3 ovarian
[33] = test system: OVCAR-4 ovarian
[34] = test system: OVCAR-5 ovarian
[35] = test system: OVCAR-8 ovarian
[36] = test system: PC-3 prostate
[37] = test system: RPMI-8226 leukemia
[38] = test system: RXF 393 renal
[39] = test system: SF-268 CNS
[40] = test system: SF-295 CNS
[41] = test system: SF-539 CNS
[42] = test system: SK-MEL-2 melanoma
[43] = test system: SK-MEL-28 melanoma
[44] = test system: SK-MEL-5 melanoma
[45] = test system: SK-OV-3 ovarian
[46] = test system: SN12C renal
[47] = test system: SNB-19 CNS
[48] = test system: SNB-75 CNS
[49] = test system: SR leukemia
[50] = test system: SW-620 colon
[51] = test system: T-47D breast
[52] = test system: TK-10 renal
[53] = test system: U251 CNS
[54] = test system: UACC-257 melanoma
[55] = test system: UACC-62 melanoma
[56] = test system: UO-31 renal

**Q.** With `CC(C)(O)/C=C/C(=O)[C@](C)(O)[C@H]1[C@H](O)C[C@@]2(C)[C@H]3CC=C4[C@@H](C[C@H](O)C(=O)C4(C)C)[C@]3(C)C(=O)C[C@]12C` as the compound, how does the GI50 [1] read?
**A.** 51.1 nM

**Q.** What about the TGI [1] of the same compound?
**A.** 249 nM

**Q.** What about the GI50 [2] of the same compound?
**A.** 17.7 nM

**Q.** And the TGI [2]?
**A.** 47.3 nM

**Q.** What about the GI50 [3] of the same compound?
**A.** 51.1 nM

**Q.** And the TGI [3]?
**A.** > 16700 nM

**Q.** And the GI50 [4]?
**A.** 53.7 nM

**Q.** And the TGI [4]?
**A.** > 16700 nM

**Q.** And the GI50 [5]?
**A.** 16.1 nM

**Q.** What about the TGI [5] of the same compound?
**A.** 54.6 nM

**Q.** And the GI50 [6]?
**A.** 13.7 nM

**Q.** What about the TGI [6] of the same compound?
**A.** 49.9 nM

**Q.** And the GI50 [7]?
**A.** 20.8 nM

**Q.** What about the TGI [7] of the same compound?
**A.** > 8450 nM

**Q.** What about the GI50 [8] of the same compound?
**A.** 27.7 nM

**Q.** And the TGI [8]?
**A.** > 16700 nM

**Q.** And the GI50 [9]?
**A.** 36.7 nM

**Q.** What about the TGI [9] of the same compound?
**A.** 4300 nM

**Q.** And the GI50 [10]?
**A.** 45.8 nM

**Q.** What about the TGI [10] of the same compound?
**A.** > 16700 nM

**Q.** What about the GI50 [11] of the same compound?
**A.** 118 nM

**Q.** And the TGI [11]?
**A.** > 16700 nM

**Q.** What about the GI50 [12] of the same compound?
**A.** 24.3 nM

**Q.** And the TGI [12]?
**A.** 7140 nM

**Q.** And the GI50 [13]?
**A.** 34.4 nM

**Q.** And the TGI [13]?
**A.** > 16700 nM

**Q.** And the GI50 [14]?
**A.** 203 nM

**Q.** What about the TGI [14] of the same compound?
**A.** 1460 nM

**Q.** What about the GI50 [15] of the same compound?
**A.** 81.8 nM

**Q.** What about the TGI [15] of the same compound?
**A.** 419 nM

**Q.** And the GI50 [16]?
**A.** 52.9 nM

**Q.** What about the TGI [16] of the same compound?
**A.** 2730 nM

**Q.** What about the GI50 [17] of the same compound?
**A.** 25.8 nM

**Q.** What about the TGI [17] of the same compound?
**A.** > 16700 nM

**Q.** And the GI50 [18]?
**A.** 70.7 nM

**Q.** And the TGI [18]?
**A.** 460 nM

**Q.** And the GI50 [19]?
**A.** 39.4 nM

**Q.** And the TGI [19]?
**A.** > 16700 nM

**Q.** What about the GI50 [20] of the same compound?
**A.** 113 nM

**Q.** And the TGI [20]?
**A.** > 16700 nM

**Q.** And the GI50 [21]?
**A.** 180 nM

**Q.** And the TGI [21]?
**A.** > 3520 nM

**Q.** And the GI50 [22]?
**A.** 17.6 nM

**Q.** What about the TGI [22] of the same compound?
**A.** 1710 nM

**Q.** What about the GI50 [23] of the same compound?
**A.** 31.5 nM

**Q.** What about the TGI [23] of the same compound?
**A.** > 16700 nM

**Q.** What about the GI50 [24] of the same compound?
**A.** 28.1 nM

**Q.** And the TGI [24]?
**A.** 307 nM

**Q.** And the GI50 [25]?
**A.** 22 nM

**Q.** And the TGI [25]?
**A.** 5770 nM

**Q.** And the GI50 [26]?
**A.** 1170 nM

**Q.** And the TGI [26]?
**A.** 16300 nM

**Q.** And the GI50 [27]?
**A.** 29.6 nM

**Q.** What about the TGI [27] of the same compound?
**A.** 4660 nM

**Q.** What about the GI50 [28] of the same compound?
**A.** 450 nM

**Q.** What about the TGI [28] of the same compound?
**A.** > 16700 nM

**Q.** And the GI50 [29]?
**A.** 24.7 nM

**Q.** What about the TGI [29] of the same compound?
**A.** > 16700 nM

**Q.** And the GI50 [30]?
**A.** 28.7 nM

**Q.** What about the TGI [30] of the same compound?
**A.** 184 nM

**Q.** And the GI50 [31]?
**A.** 71.4 nM

**Q.** What about the GI50 [32] of the same compound?
**A.** 39.5 nM

**Q.** And the TGI [32]?
**A.** 1020 nM

**Q.** And the GI50 [33]?
**A.** 5.58 nM

**Q.** What about the TGI [33] of the same compound?
**A.** 45.1 nM

**Q.** And the GI50 [34]?
**A.** 42.9 nM

**Q.** What about the TGI [34] of the same compound?
**A.** > 16700 nM

**Q.** And the GI50 [35]?
**A.** 496 nM

**Q.** What about the TGI [35] of the same compound?
**A.** > 16700 nM

**Q.** What about the GI50 [36] of the same compound?
**A.** 283 nM

**Q.** And the TGI [36]?
**A.** > 16700 nM

**Q.** What about the GI50 [37] of the same compound?
**A.** 41.9 nM

**Q.** And the TGI [37]?
**A.** > 6220 nM

**Q.** And the GI50 [38]?
**A.** 14.3 nM

**Q.** And the TGI [38]?
**A.** 31.8 nM

**Q.** What about the GI50 [39] of the same compound?
**A.** 19.6 nM

**Q.** What about the TGI [39] of the same compound?
**A.** 88.2 nM

**Q.** And the GI50 [40]?
**A.** 102 nM

**Q.** And the TGI [40]?
**A.** 872 nM

**Q.** And the GI50 [41]?
**A.** 16.7 nM

**Q.** What about the TGI [41] of the same compound?
**A.** 130 nM

**Q.** And the GI50 [42]?
**A.** 16.2 nM

**Q.** And the TGI [42]?
**A.** 52.5 nM

**Q.** What about the GI50 [43] of the same compound?
**A.** 13.9 nM

**Q.** And the TGI [43]?
**A.** 39.3 nM

**Q.** And the GI50 [44]?
**A.** 58 nM

**Q.** And the TGI [44]?
**A.** 2310 nM

**Q.** What about the GI50 [45] of the same compound?
**A.** 56 nM

**Q.** What about the TGI [45] of the same compound?
**A.** 236 nM

**Q.** What about the GI50 [46] of the same compound?
**A.** 46.6 nM

**Q.** What about the TGI [46] of the same compound?
**A.** > 12900 nM

**Q.** And the GI50 [47]?
**A.** 75.2 nM

**Q.** What about the TGI [47] of the same compound?
**A.** 3250 nM

**Q.** And the GI50 [48]?
**A.** 28.9 nM

**Q.** What about the TGI [48] of the same compound?
**A.** 108 nM

**Q.** What about the GI50 [49] of the same compound?
**A.** 41.4 nM

**Q.** And the TGI [49]?
**A.** > 16700 nM

**Q.** What about the GI50 [50] of the same compound?
**A.** 28.1 nM

**Q.** And the TGI [50]?
**A.** > 16700 nM

**Q.** What about the GI50 [51] of the same compound?
**A.** 217 nM

**Q.** And the TGI [51]?
**A.** > 14000 nM

**Q.** What about the GI50 [52] of the same compound?
**A.** 30.7 nM

**Q.** And the TGI [52]?
**A.** 89.5 nM

**Q.** What about the GI50 [53] of the same compound?
**A.** 54.1 nM

**Q.** What about the TGI [53] of the same compound?
**A.** 262 nM

**Q.** And the GI50 [54]?
**A.** 42 nM

**Q.** And the TGI [54]?
**A.** 541 nM

**Q.** And the GI50 [55]?
**A.** 26.3 nM

**Q.** What about the TGI [55] of the same compound?
**A.** 3720 nM

**Q.** What about the GI50 [56] of the same compound?
**A.** 43.2 nM

**Q.** And the TGI [56]?
**A.** 312 nM
